Our source for the EC50 values is patent publication US20230265107A1, “PB2 INHIBITOR, AND PREPARATION METHOD THEREFOR AND USE THEREOF” (priority 2020, published 2023).

For this experiment, the system named is virus IFV A/PR/8/34. The experiment in a line: Cytopathic effect (CPE) method, antiviral activity against influenza virus in MDCK cells, CCK-8 cell viability. In kind it is cell-based. The note with it: PR/8, MDCK, 120 h, read-out: EC50 (IFV A/PR/8/34) nM. Background: Protection from cytopathic effect is a common read-out in antiviral testing.
On to `COCc1ccc2c(N[C@@H]3[C@@H](C(=O)O)[C@H]4CC[C@@H]3C3CC34)nc(-c3c[nH]c4ncc(F)cc34)nn12` (stereo partly drawn) [Example 20, (1R,5S,6S,7S)-7-((2-(5-fluoro-1H-pyrrolo[2,3-b]pyridin-3-yl)-7-(methoxymethyl)pyrrolo[2,1-f][1,2,4]triazin-4-yl)amino)tricyclo[3.2.2.0^2,4]nonane-6-carboxylic acid], for which the EC50 is 0.3 nM. The value for `COCc1ccc2c(N[C@@H]3[C@@H](C(=O)O)[C@H]4CC[C@@H]3C3CC34)nc(-c3n[nH]c4ncc(F)cc34)nn12` (stereo partly drawn) [Example 32, (1R,5S,6S,7S)-7-((2-(5-fluoro-1H-pyrazolo[3,4-b]pyridin-3-yl)-7-(methoxymethyl)pyrrolo[2,1-f][1,2,4]triazin-4-yl)amino)tricyclo[3.2.2.0^2,4]nonane-6-carboxylic acid] was 0.24 nM. The value for `O=C(O)[C@@H]1[C@@H](Nc2nc(-c3c[nH]c4ncc(F)cc34)nn3c(C(F)(F)F)ccc23)[C@@H]2CC[C@H]1C1CC12` (stereo partly drawn) [Example 30, (1R,5S,6S,7S)-7-((2-(5-fluoro-1H-pyrrolo[2,3-b]pyridin-3-yl)-7-(trifluoromethyl)pyrrolo[2,1-f][1,2,4]triazin-4-yl)amino)tricyclo[3.2.2.0^2′4]nonane-6-carboxylic acid] was 0.37 nM. The value for `O=C(O)[C@H]1[C@H]2CC[C@H](CC2)[C@@H]1Nc1nc(-c2c[nH]c3ncc(F)cc23)nn2cc(C3CC3)cc12` [Example 8, (1R,2S,3S,4R)-3-((6-cyclopropyl-2-(5-fluoro-1H-pyrrolo[2,3-b]pyridin-3-yl)pyrrolo[2,1-f][1,2,4]triazin-4-yl)amino)bicyclo[2.2.2]octane-2-carboxylic acid] was 0.8 nM; that for `O=C(O)[C@H]1[C@H]2CC[C@H](CC2)[C@@H]1Nc1nc(-c2c[nH]c3ncc(F)cc23)nn2c(C(F)(F)F)ccc12` [Example 18, (1R,2S,3S,4R)-3-((2-(5-fluoro-1H-pyrrolo[2,3-b]pyridin-3-yl)-7-(trifluoromethyl)pyrrolo[2,1-f][1,2,4]triazin-4-yl)amino)bicyclo[2.2.2]octane-2-carboxylic acid] was 0.3 nM.

With `O=C(O)[C@@H]1[C@@H](Nc2nc(-c3n[nH]c4ncc(F)cc34)nn3c(C4CC4)ccc23)[C@@H]2CC[C@H]1C1CC12` (stereo partly drawn) [Example 38, (1R,5S,6S,7S)-7-((7-cyclopropyl-2-(5-fluoro-1H-pyrazolo[3,4-b]pyridin-3-yl)pyrrolo[2,1-f][1,2,4]triazin-4-yl)amino)tricyclo[3.2.2.0^2,4]nonane-6-carboxylic acid], the EC50 was found to be 0.09 nM. As for `O=C(O)[C@@H]1[C@@H](Nc2nc(-c3n[nH]c4ncc(F)cc34)nn3c(C(F)(F)F)ccc23)[C@@H]2CC[C@H]1C1CC12` (stereo partly drawn) [Example 31, (1R,5S,6S,7S)-7-((2-(5-fluoro-1H-pyrazolo[3,4-b]pyridin-3-yl)-7-(trifluoromethyl)pyrrolo[2,1-f][1,2,4]triazin-4-yl)amino)tricyclo[3.2.2.0^2,4]nonane-6-carboxylic acid], the figure is 0.08 nM.
